Test results taken from US20060069132A1, “Azolecarboxamide herbicides” (priority 2004, published 2006).

Tests used:
[1] = tested on: velvetleaf; assay: Test B pre-/postemergence herbicide test; format: in vivo, Abutilon theophrasti; conditions: for Plant response rating (0 to 100 scale), Velvetleaf: 0 is no effect, 100 is complete control, preemergence; for Velvetleaf plant response rating: scale 0 (no effect) to 100 (complete control)
In short: (§1)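 Pre: seeds sown, then sprayed. Post: 1–4-leaf plants (2–18 cm) sprayed at the same time. Paddy: flooded, treated at 2-leaf stage. Formulation: non-phytotoxic solvent with surfactant. Greenhouse 13–15 days; visual 0–100 score relative to controls.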

[2] = tested on: lambsquarters; assay: Test B pre-/postemergence herbicide test; format: in vivo, Chenopodium album; conditions: for Plant response rating (0 to 100 scale), Lambsquarters: 0 is no effect, 100 is complete control, preemergence; for Lambsquarters plant response rating: scale 0 (no effect) to 100 (complete control)
In short: as §1

[3] = tested on: ducksalad; assay: Test B flooded paddy test; format: in vivo, Heteranthera limosa; conditions: 1000 g ai/ha, scale 0 to 100 (0 no effect, 100 complete control)
In short: (§2)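 Visual ratings, 0 (no effect) to 100 (complete control), made versus controls after 13–15 d greenhouse. Paddy plants treated at 2-leaf stage; postemergence plants at 1- to 4-leaf stage, 2–18 cm tall.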

[4] = tested on: pigweed; assay: Test B pre-/postemergence herbicide test; format: in vivo, Amaranthus retroflexus; conditions: for Plant response rating (0 to 100 scale), Pigweed: 0 is no effect, 100 is complete control, preemergence; for Pigweed plant response rating: scale 0 (no effect) to 100 (complete control)
In short: as §1

[5] = tested on: cocklebur; assay: Test B pre-/postemergence herbicide test; format: in vivo, Xanthium strumarium; conditions: for Plant response rating (0 to 100 scale), Cocklebur: 0 is no effect, preemergence; for Cocklebur plant response rating: postemergence
In short: (§3)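 Visual rating, 0 (no effect) to 100 (complete control), versus untreated controls after 13–15 d in greenhouse. Pre- and postemergence applications (postemergence plants 2–18 cm, 1–4 leaves); flooded paddy arm at 2-leaf stage. Compounds in non-phytotoxic solvent plus surfactant.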

[6] = tested on: wheat; assay: Test B postemergence herbicide test; format: in vivo, Triticum aestivum; design: key to Wheat plant response rating: 0 = no effect, 100 = complete control
In short: (§4)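 Formulated test chemicals went onto postemergence plants measuring 2 to 18 cm, at one to four leaves. For the paddy assay, species had reached two leaves. Scoring took place 13–15 days later by eye, relative to untreated plants, using 0 for no effect up to 100 for full control.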

[7] = tested on: giant foxtail; assay: Test B pre-/postemergence herbicide test; format: in vivo, Setaria faberi; conditions: for Plant response rating (0 to 100 scale), Foxtail, Giant: 0 is no effect, preemergence; for Foxtail, Giant plant response rating: postemergence
In short: as §1

[8] = tested on: small flower umbrella sedge; assay: Test B flooded paddy test; format: in vivo, Cyperus difformis; conditions: 1000 g ai/ha, scale 0 to 100 (0 no effect, 100 complete control)
In short: as §2

[9] = tested on: large crabgrass; assay: Test B pre-/postemergence herbicide test; format: in vivo, Digitaria sanguinalis; conditions: for Plant response rating (0 to 100 scale), Crabgrass, Large: 0 is no effect, preemergence; for Crabgrass, Large plant response rating: postemergence
In short: as §1

[10] = tested on: morningglory; assay: Test B pre-/postemergence herbicide test; format: in vivo, Ipomoea coccinea; conditions: for Plant response rating (0 to 100 scale), Morningglory: 0 is no effect, 100 is complete control, preemergence; for Morningglory plant response rating: scale 0 (no effect) to 100 (complete control)
In short: as §3

[11] = tested on: corn; assay: Test B pre-/postemergence herbicide test; format: in vivo, Zea mays; conditions: for Plant response rating (0 to 100 scale), Corn: 0 is no effect, preemergence; for Corn plant response rating: postemergence
In short: as §1

[12] = tested on: blackgrass; assay: Test B postemergence herbicide test; format: in vivo, Alopecurus myosuroides; conditions: postemergence
In short: as §2

[13] = tested on: rice; assay: Test B flooded paddy test; format: in vivo, Oryza sativa; conditions: 1000 g ai/ha, scale 0 to 100 (0 no effect, 100 complete control)
In short: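 Plants grow to 1- to 4-leaf stage (2–18 cm) for postemergence spraying, or to 2-leaf stage for the paddy test. Formulated compound is applied. Greenhouse holding lasts 13–15 days. Response is scored visually relative to controls, 0 no effect to 100 complete control; a dash means no result.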

[14] = tested on: barnyardgrass; assay: Test B pre-/postemergence herbicide test; format: in vivo, Echinochloa crus-galli; conditions: for Plant response rating (0 to 100 scale), Barnyardgrass: 0 is no effect, preemergence; for Barnyardgrass plant response rating: postemergence
In short: as §3

[15] = tested on: Surinam grass; assay: Test B pre-/postemergence herbicide test; format: in vivo, Urochloa decumbens; conditions: for Plant response rating (0 to 100 scale), Surinam Grass: 0 is no effect, 100 is complete control, preemergence; for Surinam Grass plant response rating: scale 0 (no effect) to 100 (complete control)
In short: as §1

[16] = tested on: barnyardgrass; assay: Test B flooded paddy test; format: in vivo, Echinochloa crus-galli; conditions: 1000 g ai/ha, scale 0 to 100 (0 no effect, 100 complete control)
In short: as §2

[17] = tested on: wild oat; assay: Test B postemergence herbicide test; format: in vivo, Avena fatua; conditions: scale 0 (no effect) to 100 (complete control)
In short: as §4

[18] = 125 g ai/ha, visual rating, postemergence
[19] = 125 g ai/ha, 100 is complete control
[20] = 125 g ai/ha, visual rating, scale 0 (no effect) to 100 (complete control)
[21] = 500 g ai/ha, scale 0 to 100, 0 is no effect, 100 is complete control
[22] = 125 g ai/ha, visual rating, scale 0 (no effect) to 100 (complete control), postemergence
[23] = 500 g ai/ha, scale 0 to 100, 0 no effect, 100 complete control, preemergence
[24] = Postemergence, 500 g ai/ha, scale 0 (no effect) to 100 (complete control)

CCNC(=O)c1ccc(F)c(NC(=O)c2nn(C(C)(C)CC)nc2CC)c1 [Compound 370]
30: Pigweed plant response rating ([4]; Postemergence, 500 g ai/ha) | Rice plant response rating [13]
60: Ducksalad plant response rating [3]
10: Velvetleaf plant response rating [1, 18] | Plant response rating (0 to 100 scale), Crabgrass, Large [9, 19] | Crabgrass, Large plant response rating [9, 20] | Crabgrass, Large plant response rating [9, 21] | Morningglory plant response rating [10, 18] | Corn plant response rating [11, 20] | Corn plant response rating [11, 21] | Blackgrass plant response rating [12, 21] | Plant response rating (0 to 100 scale), Barnyardgrass [14, 19] | Surinam Grass plant response rating [15, 18] | Surinam Grass plant response rating ([15]; Postemergence, 500 g ai/ha)
0: Plant response rating (0 to 100 scale), Velvetleaf ([1]; 125 g ai/ha) | Lambsquarters plant response rating [2, 18] | Pigweed plant response rating [4, 18] | Plant response rating (0 to 100 scale), Cocklebur [5, 19] | Cocklebur plant response rating [5, 20] | Cocklebur plant response rating [5, 21] | Wheat plant response rating [6, 22] | Wheat plant response rating [6, 23] | Wheat plant response rating [6, 24] | Plant response rating (0 to 100 scale), Foxtail, Giant [7, 19] | Foxtail, Giant plant response rating [7, 20] | Plant response rating (0 to 100 scale), Morningglory ([10]; 125 g ai/ha) | Plant response rating (0 to 100 scale), Corn [11, 19] | Blackgrass plant response rating [12, 20] | Barnyardgrass plant response rating [14, 20] | Barnyardgrass plant response rating [14, 21] | Plant response rating (0 to 100 scale), Surinam Grass ([15]; 125 g ai/ha) | Barnyardgrass plant response rating [16] | Oat, Wild plant response rating [17, 18] | Oat, Wild plant response rating ([17]; Postemergence, 500 g ai/ha)
40: Plant response rating (0 to 100 scale), Pigweed ([4]; 125 g ai/ha) | Sedge, Umbrella plant response rating [8]
20: Velvetleaf plant response rating ([1]; Postemergence, 500 g ai/ha) | Lambsquarters plant response rating ([2]; Postemergence, 500 g ai/ha) | Foxtail, Giant plant response rating [7, 21] | Morningglory plant response rating ([10]; Postemergence, 500 g ai/ha)
80: Plant response rating (0 to 100 scale), Lambsquarters ([2]; 125 g ai/ha)

CCOC(=O)c1ccc(F)c(NC(=O)c2nn(C(C)(C)CC)nc2CC)c1 [Compound 373]
50: Pigweed plant response rating [4, 18]
10: Cocklebur plant response rating [5, 20] | Wheat plant response rating [6, 24] | Crabgrass, Large plant response rating [9, 20] | Crabgrass, Large plant response rating [9, 21] | Blackgrass plant response rating [12, 21] | Barnyardgrass plant response rating [14, 20] | Surinam Grass plant response rating [15, 18] | Oat, Wild plant response rating [17, 18]
30: Velvetleaf plant response rating ([1]; Postemergence, 500 g ai/ha) | Lambsquarters plant response rating ([2]; Postemergence, 500 g ai/ha) | Cocklebur plant response rating [5, 21] | Foxtail, Giant plant response rating [7, 21] | Oat, Wild plant response rating ([17]; Postemergence, 500 g ai/ha)
0: Plant response rating (0 to 100 scale), Velvetleaf ([1]; 125 g ai/ha) | Plant response rating (0 to 100 scale), Lambsquarters ([2]; 125 g ai/ha) | Ducksalad plant response rating [3] | Plant response rating (0 to 100 scale), Pigweed ([4]; 125 g ai/ha) | Plant response rating (0 to 100 scale), Cocklebur [5, 19] | Wheat plant response rating [6, 22] | Wheat plant response rating [6, 23] | Plant response rating (0 to 100 scale), Foxtail, Giant [7, 19] | Plant response rating (0 to 100 scale), Crabgrass, Large [9, 19] | Plant response rating (0 to 100 scale), Morningglory ([10]; 125 g ai/ha) | Plant response rating (0 to 100 scale), Corn [11, 19] | Corn plant response rating [11, 20] | Blackgrass plant response rating [12, 20] | Rice plant response rating [13] | Plant response rating (0 to 100 scale), Barnyardgrass [14, 19] | Plant response rating (0 to 100 scale), Surinam Grass ([15]; 125 g ai/ha)
20: Velvetleaf plant response rating [1, 18] | Lambsquarters plant response rating [2, 18] | Foxtail, Giant plant response rating [7, 20] | Sedge, Umbrella plant response rating [8] | Morningglory plant response rating [10, 18] | Morningglory plant response rating ([10]; Postemergence, 500 g ai/ha) | Corn plant response rating [11, 21] | Barnyardgrass plant response rating [14, 21] | Surinam Grass plant response rating ([15]; Postemergence, 500 g ai/ha) | Barnyardgrass plant response rating [16]
70: Pigweed plant response rating ([4]; Postemergence, 500 g ai/ha)

CCNC(=O)c1ccc(F)c(NC(=O)c2nn(C(C)(C)C)nc2C)c1 [Compound 377]
60: Lambsquarters plant response rating [2, 18] | Plant response rating (0 to 100 scale), Pigweed ([4]; 125 g ai/ha) | Morningglory plant response rating ([10]; Postemergence, 500 g ai/ha)
80: Sedge, Umbrella plant response rating [8]
70: Lambsquarters plant response rating ([2]; Postemergence, 500 g ai/ha)
20: Velvetleaf plant response rating [1, 18] | Wheat plant response rating [6, 23] | Plant response rating (0 to 100 scale), Crabgrass, Large [9, 19]
0: Plant response rating (0 to 100 scale), Velvetleaf ([1]; 125 g ai/ha) | Plant response rating (0 to 100 scale), Lambsquarters ([2]; 125 g ai/ha) | Plant response rating (0 to 100 scale), Cocklebur [5, 19] | Cocklebur plant response rating [5, 20] | Cocklebur plant response rating [5, 21] | Wheat plant response rating [6, 22] | Wheat plant response rating [6, 24] | Plant response rating (0 to 100 scale), Foxtail, Giant [7, 19] | Foxtail, Giant plant response rating [7, 20] | Crabgrass, Large plant response rating [9, 20] | Crabgrass, Large plant response rating [9, 21] | Plant response rating (0 to 100 scale), Morningglory ([10]; 125 g ai/ha) | Morningglory plant response rating [10, 18] | Plant response rating (0 to 100 scale), Corn [11, 19] | Corn plant response rating [11, 20] | Blackgrass plant response rating [12, 20] | Blackgrass plant response rating [12, 21] | Plant response rating (0 to 100 scale), Barnyardgrass [14, 19] | Barnyardgrass plant response rating [14, 20] | Barnyardgrass plant response rating [14, 21] | Plant response rating (0 to 100 scale), Surinam Grass ([15]; 125 g ai/ha) | Surinam Grass plant response rating [15, 18] | Oat, Wild plant response rating [17, 18] | Oat, Wild plant response rating ([17]; Postemergence, 500 g ai/ha)
10: Foxtail, Giant plant response rating [7, 21] | Corn plant response rating [11, 21] | Surinam Grass plant response rating ([15]; Postemergence, 500 g ai/ha)
30: Pigweed plant response rating [4, 18] | Barnyardgrass plant response rating [16]
40: Velvetleaf plant response rating ([1]; Postemergence, 500 g ai/ha) | Ducksalad plant response rating [3] | Rice plant response rating [13]
